The assay deals with intact V-ATPase (purified yeast V-ATPase) (Saccharomyces cerevisiae, UniProt P23968+P25515+P32563+P32842). Description: enzyme-coupled ATPase assay. The format is biochemical.

`CO/C1=C\C(C)=C\[C@@H](C)[C@@H](O)[C@@H](C)C/C(C)=C/C=C/[C@H](OC)[C@@H]([C@@H](C)[C@@H](O)[C@H](C)[C@@]2(O)C[C@@H](O)[C@H](C)[C@@H](C(C)C)O2)OC1=O` [bafilomycin A1] registered an IC50 of less than 1.11 nM.

As usually defined, the IC50 is the concentration that inhibits the measured activity by half. The low end stands for higher potency, the high end for lower potency.
